Reference: paper doi:10.1101/767673v1 (bioRxiv, 2019)
Where a SMILES comes first, the peptide text is derived from it. Bridges are numbered along the chain shown (N, C = ends). [ ]: non-standard residue; d: D form. dPhe(4-CF3) = N[C@H](Cc1ccc(C(F)(F)F)cc1)C(=O)O; dTrp(6-F) = N[C@H](Cc1c[nH]c2cc(F)ccc12)C(=O)O; S8 = C=CCCCCCC[C@](C)(N)C(=O)O; R5 = C=CCCC[C@@](C)(N)C(=O)O

Experiments:
Mdm4 = target: T1, Mdm4 (Homo sapiens, UniProt O15151); assay: Competitive fluorescence anisotropy / FP binding assay, Mdm4; conditions: FP competition assay
T1 sequence (O15151 1-490): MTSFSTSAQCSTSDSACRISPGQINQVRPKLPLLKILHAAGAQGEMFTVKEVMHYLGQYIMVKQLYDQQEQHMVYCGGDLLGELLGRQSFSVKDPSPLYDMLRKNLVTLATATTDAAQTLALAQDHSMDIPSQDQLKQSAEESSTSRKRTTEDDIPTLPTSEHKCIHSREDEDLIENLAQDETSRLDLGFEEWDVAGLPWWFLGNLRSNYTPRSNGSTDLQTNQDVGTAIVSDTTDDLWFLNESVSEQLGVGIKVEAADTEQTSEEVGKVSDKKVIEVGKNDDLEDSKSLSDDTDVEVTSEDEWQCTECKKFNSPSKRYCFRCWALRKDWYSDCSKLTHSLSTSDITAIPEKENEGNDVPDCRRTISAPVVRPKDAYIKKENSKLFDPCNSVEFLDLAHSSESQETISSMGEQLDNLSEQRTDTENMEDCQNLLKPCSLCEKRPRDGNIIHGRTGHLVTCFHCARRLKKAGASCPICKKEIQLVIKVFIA

Mdm2 (1-125) = Mdm2 (1-125) (Homo sapiens, UniProt Q00987); assay: Competitive fluorescence anisotropy / FP binding assay, Mdm2; conditions: FP competition assay
[1] = target: human Mdm2 protein (amino acids 1–125) (Homo sapiens, UniProt Q00987); assay: Isothermal titration calorimetry; format: binding; conditions: PBS pH 7.2, 3% DMSO, 0.001% Tween-20, duplicates

| SMILES | Binding to Mdm4 in the FP assay (Mdm4) | Binding to Mdm2 in the FP assay (Mdm2 (1-125)) | ITC enthalpy of binding (ΔH) to Mdm2 [1] [kcal/mol] |
| --- | --- | --- | --- |
| CC(C)C[C@@H](NC(=O)[C@@H](CC(C)C)NC(=O)[C@@]1(C)CCCC=CCCCCCC[C@](C)(NC(=O)[C@H](N)[C@H](C)O)C(=O)N[C@H](Cc2c[nH]c3cc(F)ccc23)C(=O)N[C@H](Cc2ccc(O)cc2)C(=O)N[C@H](C)C(=O)N[C@H](CC(N)=O)C(=O)N[C@H](Cc2ccc(C(F)(F)F)cc2)C(=O)N[C@H](CCC(=O)O)C(=O)N1)C(=O)N[C@H](CCCNC(=N)N)C(N)=O [^dPMI-δ(2-9)] (H-[dT][S8][dTrp(6-F)][dY][dA][dN][dPhe(4-CF3)][dE][R5][dL][dL][dR]-NH2; staple 2-9; N-terminus and C-terminus assumed) | displayed no binding | no binding | – |
| CC(C)C[C@@H](NC(=O)[C@@H](CC(C)C)NC(=O)[C@@H](CCCCN)NC(=O)[C@@H](CCC(=O)O)NC(=O)[C@@H](Cc1ccc(C(F)(F)F)cc1)NC(=O)[C@@H](CC(N)=O)NC(=O)[C@@]1(C)CCCC=CCCC[C@@](C)(N)C(=O)N[C@H](C)C(=O)N[C@H](Cc2c[nH]c3cc(F)ccc23)C(=O)N[C@H](Cc2ccc(O)cc2)C(=O)N1)C(=O)N[C@H](CCCNC(=N)N)C(N)=O [^dPMI-δ(1-5)] | – | – | -15.8 |
